In this assay the target is T1, Ba/F3-TEL-FGFR3 cells (Homo sapiens, UniProt P22607).
T1 construct: fused on or other part: The N-terminal oligomerising part of TEL (ETV6) is fused before the intracellular kinase part of FGFR3; P41212 (Transcription factor ETV6)
Description: FGFR3 cellular assay: proliferation of transformed Ba/F3-TEL-FGFR3 cells (AlamarBlue). Type of assay: cell-based. To be noted: 48 hours incubation, class symbols. As to the method:
Compounds of the invention are tested for their ability to inhibit transformed Ba/F3-TEL-FGFR3 cells proliferation, which is dependent on FGFR3 cellular kinase activity. Ba/F3-TEL-FGFR3 are cultured up to 800,000 cells/mL in suspension, with RPMI 1640 supplemented with 10% fetal bovine serum as the culture medium. Cells are dispensed into 384-well format plate at 5000 cell/well in […], culture medium. Compounds of the invention are dissolved and diluted in dimethylsulfoxide (DMSO). Twelve points 1:3 serial dilutions are made into DMSO to create concentrations gradient ranging typically from 10 mM to 0.05 μM. Cells are added with 50 nL of diluted compounds and incubated for 48 hours in cell culture incubator. AlamarBlue® (TREK Diagnostic Systems), which can be used to monitor the reducing environment created by proliferating cells, are added to cells at final concentration of 10%. After additional four hours of incubation in a 37° C. cell culture incubator, fluorescence signals from reduced AlamarBlue® (Excitation at 530 nm, Emission at 580 nm) are quantified on Analyst GT (Molecular Devices Corp.). IC50 values are calculated by linear regression analysis of the percentage inhibition of each compound at 12 concentrations.
Background: The colour change of resazurin is a common sign of viable cells or microbes.

A value given as a limit tells only on which side of the number the result lay.

What is called GI50 is the concentration at which growth is held to half of that of the control. A low value points to more potent growth inhibition.

T1 sequence (P22607 whole entry, change not shown, the tested form may be a part): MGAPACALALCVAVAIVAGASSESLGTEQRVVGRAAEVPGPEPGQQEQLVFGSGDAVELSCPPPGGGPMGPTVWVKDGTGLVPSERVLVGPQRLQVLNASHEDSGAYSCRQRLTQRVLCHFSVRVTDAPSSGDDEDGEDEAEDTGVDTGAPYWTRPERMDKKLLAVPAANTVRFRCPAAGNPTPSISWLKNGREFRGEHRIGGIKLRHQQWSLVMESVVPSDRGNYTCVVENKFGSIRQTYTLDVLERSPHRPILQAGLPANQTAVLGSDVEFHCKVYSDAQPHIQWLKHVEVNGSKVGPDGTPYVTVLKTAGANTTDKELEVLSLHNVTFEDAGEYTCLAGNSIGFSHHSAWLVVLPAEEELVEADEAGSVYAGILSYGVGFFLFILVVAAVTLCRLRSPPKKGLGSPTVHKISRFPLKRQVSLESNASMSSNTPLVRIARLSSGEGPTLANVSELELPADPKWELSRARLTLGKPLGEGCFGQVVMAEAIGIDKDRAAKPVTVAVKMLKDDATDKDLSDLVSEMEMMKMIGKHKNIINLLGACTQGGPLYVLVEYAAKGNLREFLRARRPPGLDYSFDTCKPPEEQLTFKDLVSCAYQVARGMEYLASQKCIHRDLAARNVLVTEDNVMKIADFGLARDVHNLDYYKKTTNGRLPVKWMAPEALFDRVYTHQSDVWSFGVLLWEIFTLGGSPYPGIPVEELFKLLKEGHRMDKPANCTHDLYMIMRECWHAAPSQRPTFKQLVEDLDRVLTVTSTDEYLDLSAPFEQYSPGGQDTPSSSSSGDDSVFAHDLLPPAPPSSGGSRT

Molecule `COc1cc(OC)c(Cl)c(Nc2ncncc2-c2cc(N)ncn2)c1Cl` [Compound 1, N4′-(2,6-Dichloro-3,5-dimethoxy-phenyl)-[4,5′]bipyrimidinyl-6,4′-diamine] displayed a GI50 of 100 to 250 nM. The same measure for `COc1cc(OC)c(Cl)c(Nc2ncncc2-c2cc(Nc3ccc(CN4CCCC4)cn3)ncn2)c1Cl` [Compound 2, N4′-(2,6-Dichloro-3,5-dimethoxy-phenyl)-N6-(5-pyrrolidin-1-ylmethyl-pyridin-2-yl)-[4,5′]bipyrimidinyl-6,4′-diamine]: less than 100 nM; for `COc1cc(OC)c(Cl)c(Nc2ncncc2-c2cc(Nc3ccc(CN4CCN(C)CC4)cn3)ncn2)c1Cl` [Compound 3, N4′-(2,6-Dichloro-3,5-dimethoxy-phenyl)-N6-[5-(4-methyl-piperazin-1-ylmethyl)-pyridin-2-yl]-[4,5′]bipyrimidinyl-6,4′-diamine]: less than 100 nM. Turning to `COc1cc(OC)c(Cl)c(Nc2ncncc2-c2cc(Nc3ccc(CN4CCOCC4)cn3)ncn2)c1Cl` [Compound 4, N4′-(2,6-Dichloro-3,5-dimethoxy-phenyl)-N6-(5-morpholin-4-ylmethyl-pyridin-2-yl)-[4,5′]bipyrimidinyl-6,4′-diamine], the concentration for 50% growth inhibition (GI50) was less than 100 nM. `COc1cc(OC)c(Cl)c(Nc2ncncc2-c2cc(Nc3cc(CN4CCOCC4)ccn3)ncn2)c1Cl` [Compound 5, N4′-(2,6-Dichloro-3,5-dimethoxy-phenyl)-N6-(4-morpholin-4-ylmethyl-pyridin-2-yl)-[4,5′]bipyrimidinyl-6,4′-diamine] gave a GI50 of less than 100 nM. The same measure for `COc1cc(OC)c(Cl)c(Nc2ncncc2-c2cc(Nc3cc(CN4CCN(C)CC4)ccn3)ncn2)c1Cl` [Compound 6, N4′-(2,6-Dichloro-3,5-dimethoxy-phenyl)-N6-[4-(4-methyl-piperazin-1-ylmethyl)-pyridin-2-yl]-[4,5′]bipyrimidinyl-6,4′-diamine]: less than 100 nM; for `COc1cc(OC)c(Cl)c(Nc2ncncc2-c2cc(Nc3ccc(CN(C)C)cn3)ncn2)c1Cl` [Compound 7, N4′-(2,6-Dichloro-3,5-dimethoxy-phenyl)-N6-(5-dimethylaminomethyl-pyridin-2-yl)-[4,5′]bipyrimidinyl-6,4′-diamine]: less than 100 nM; for `COc1cc(OC)c(Cl)c(Nc2ncncc2-c2cc(NC(=O)NCCN3CCN(C)CC3)ncn2)c1Cl` [Compound 8, 1-[4′-(2,6-Dichloro-3,5-dimethoxy-phenylamino)-[4,5′]bipyrimidinyl-6-yl]-3-[2-(4-methyl-piperazin-1-yl)-ethyl]-urea]: 100 to 250 nM.

In turn, `COc1cc(OC)c(Cl)c(Nc2ncncc2-c2cc(NC(=O)NCCN3CCOCC3)ncn2)c1Cl` [Compound 9, 1-[4′-(2,6-Dichloro-3,5-dimethoxy-phenylamino)-[4,5′]bipyrimidinyl-6-yl]-3-(2-morpholin-4-yl-ethyl)-urea] showed a concentration for 50% growth inhibition (GI50) of less than 100 nM.

For the molecule `CCN1CCN(c2ccc(Nc3cc(-c4cncnc4Nc4c(Cl)c(OC)cc(OC)c4Cl)ncn3)cc2)CC1` [Compound 10, N4′-(2,6-Dichloro-3,5-dimethoxy-phenyl)-N6-[4-(4-ethyl-piperazin-1-yl)-phenyl]-[4,5′]bipyrimidinyl-6,4′-diamine], the GI50 is less than 100 nM. As for `COc1cc(OC)c(Cl)c(Nc2ncncc2-c2cc(Nc3ccc(N4CCOCC4)cc3)ncn2)c1Cl` [Compound 11, N4′-(2,6-Dichloro-3,5-dimethoxy-phenyl)-N6-(4-morpholin-4-yl-phenyl)-[4,5′]bipyrimidinyl-6,4′-diamine], the figure is less than 100 nM.

`COc1cc(OC)c(Cl)c(Nc2ncncc2-c2cc(NCCCN3CCOCC3)ncn2)c1Cl` [Compound 12, N4′-(2,6-Dichloro-3,5-dimethoxy-phenyl)-N6-(3-morpholin-4-yl-propyl)-[4,5′]bipyrimidinyl-6,4′-diamine] had a concentration for 50% growth inhibition (GI50) of 100 to 250 nM.

The molecule `COc1cc(OC)c(Cl)c(Nc2ncncc2-c2cc(NCCCCN(C)C)ncn2)c1Cl` [Compound 13, N4′-(2,6-Dichloro-3,5-dimethoxy-phenyl)-N6-(4-dimethylamino-butyl)-[4,5′]bipyrimidinyl-6,4′-diamine] had a GI50 of 250 to 500 nM.
